Laboratory results as given in patent publication US20230000769A1, “OIL-IN-WATER EMULSION FORMULATIONS FOR DELIVERY OF ACTIVE OR THERAPEUTIC AGENTS” (IMMUNOVACCINE TECHNOLOGIES INC., priority 2019, published 2023).

Assay: HPLC analysis of oil (top) and aqueous (bottom) layers of centrifuged O/W emulsions
Type: physicochemical
Conditions: control or Bottom layer-Water; target 8.00 mg/mL
Experimental: O/W emulsions were prepared by combining the hydrophobic phase (DPX-empty in Montanide™ ISA 51 oil) and the aqueous phase (containing an aqueous phase agent) with 120 passes through a Vygon™ connector.
For analysis by High Performance Liquid Chromatography (HPLC), the O/W emulsion formulations were centrifuged at 15,000 RPM for 30 minutes to separate oil (top) and aqueous (bottom) layers, and samples from both layers were analysed. Samples were prepared using n-Butanol Extraction method (for oil phase) and Total solubilization method (for aqueous phase). n-Butanol Extraction method (for oil phase): To 100 μL of the top layer oil sample 300 μL of 0.1M NaHCO3 and 400 μL of water saturated 1-Butanol were added. Sample was vortexed to mix and centrifuged for 2 mins at 5000 RPM. The bottom layer was taken for analysis. Total solubilization method (for aqueous phase): To 75 μL of the bottom layer aqueous sample, up to 5 mL of mobile phase A was added. The mobile phases used for cyclophosphamide, oligonucleotide and anti-CTLA4 analysis were as follows, Cyclophosphamide: Mobile Phase A: 30% acetonitrile in water; Mobile Phase B: methanol. Oligonucleotide: Mobile Phase A: mix of tris, acetonitrile, water; Mobile Phase B: mix of tris, NaCL, acetonitrile, water. Anti-CTLA4: Mobile Phase A: 0.1% TFA/water; Mobile Phase B: 0.1% TFA/acetonitrile; Mobile Phase C: methanol. […]

For `O=P1(N(CCCl)CCCl)NCCCO1` (stereo not shown) [Cyclophosphamide control, N,N-bis(2-chloroethyl)-1,3,2-oxazaphosphinan-2-amine 2-oxide], the “Cyclophosphamide Concentration” value was 6.76 mg/mL.
